Experiments:
[1] = target: T1, mouse Siglec-2-Fc-Avi (CD22) (Mus musculus, UniProt P35329); assay: SPR binding affinity to mouse CD22; settings: steady-state analysis
T1 construct: made in house
T1 sequence (P35329 22-708 limits assumed): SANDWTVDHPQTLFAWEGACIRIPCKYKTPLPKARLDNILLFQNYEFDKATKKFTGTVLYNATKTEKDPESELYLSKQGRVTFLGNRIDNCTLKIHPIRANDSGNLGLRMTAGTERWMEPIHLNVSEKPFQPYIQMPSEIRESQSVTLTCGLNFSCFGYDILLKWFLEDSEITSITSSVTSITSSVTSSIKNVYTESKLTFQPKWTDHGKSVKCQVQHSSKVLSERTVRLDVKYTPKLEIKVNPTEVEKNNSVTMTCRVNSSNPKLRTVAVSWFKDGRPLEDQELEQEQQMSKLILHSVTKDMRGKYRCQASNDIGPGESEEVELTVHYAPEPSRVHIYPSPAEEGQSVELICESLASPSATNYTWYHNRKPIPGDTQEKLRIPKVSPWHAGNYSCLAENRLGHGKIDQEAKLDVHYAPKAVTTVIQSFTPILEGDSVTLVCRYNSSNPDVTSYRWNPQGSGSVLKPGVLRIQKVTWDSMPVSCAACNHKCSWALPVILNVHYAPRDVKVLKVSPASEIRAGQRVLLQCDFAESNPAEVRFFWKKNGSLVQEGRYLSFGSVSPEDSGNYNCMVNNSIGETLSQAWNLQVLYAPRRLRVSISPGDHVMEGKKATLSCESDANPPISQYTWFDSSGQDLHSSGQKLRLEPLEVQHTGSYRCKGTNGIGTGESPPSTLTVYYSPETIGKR
Outline: (§1)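 Native sialic acid residues are removed from the receptor enzymatically (4 hours at 37° C.) prior to streptavidin capture of the biotinylated protein. Ligand compounds then flow over in HEPES-buffered saline, pH 7.5, containing 0.05% Tween-20 and 1% DMSO, and binding is evaluated at steady state.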

[2] = target: T2, human Siglec-2/CD22 protein (Homo sapiens, UniProt P20273); assay: SPR binding affinity to human CD22; settings: steady-state analysis
T2 construct: purchased Acro Biosystems SI2-H82E3
T2 sequence (P20273 20-847): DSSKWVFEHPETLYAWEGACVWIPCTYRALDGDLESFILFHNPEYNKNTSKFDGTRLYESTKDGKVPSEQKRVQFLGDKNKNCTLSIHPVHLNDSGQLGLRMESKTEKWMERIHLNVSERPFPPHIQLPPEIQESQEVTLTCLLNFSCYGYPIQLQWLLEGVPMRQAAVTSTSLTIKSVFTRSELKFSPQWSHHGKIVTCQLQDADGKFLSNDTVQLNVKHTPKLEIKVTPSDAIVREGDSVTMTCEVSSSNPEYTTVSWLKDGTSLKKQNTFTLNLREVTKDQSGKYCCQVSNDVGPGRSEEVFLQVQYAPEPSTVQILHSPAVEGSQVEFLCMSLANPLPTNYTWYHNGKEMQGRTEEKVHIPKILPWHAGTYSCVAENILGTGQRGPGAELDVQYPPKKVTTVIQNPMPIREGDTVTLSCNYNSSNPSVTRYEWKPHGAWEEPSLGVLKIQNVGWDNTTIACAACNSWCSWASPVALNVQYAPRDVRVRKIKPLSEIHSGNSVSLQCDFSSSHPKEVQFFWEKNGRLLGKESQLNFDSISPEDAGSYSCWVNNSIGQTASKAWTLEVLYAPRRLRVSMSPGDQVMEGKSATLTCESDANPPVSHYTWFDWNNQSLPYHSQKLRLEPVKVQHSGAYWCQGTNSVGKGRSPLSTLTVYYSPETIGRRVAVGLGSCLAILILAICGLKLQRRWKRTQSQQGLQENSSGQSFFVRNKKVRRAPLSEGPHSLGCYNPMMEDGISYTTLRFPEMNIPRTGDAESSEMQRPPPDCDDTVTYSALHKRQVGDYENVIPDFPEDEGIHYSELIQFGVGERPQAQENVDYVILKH
Outline: as §1

cynomolgus Siglec-2/CD22 = cynomolgus Siglec-2/CD22 (Macaca fascicularis, UniProt A0A2K5WCZ6); assay: biochemical; format: binding; settings: SPR, steady-state analysis; read-out: Affinity cyno CD22
Outline: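 Compound binding measured by steady-state SPR analysis, 120 s dissociation, in HEPES-NaCl-Tween buffer pH 7.5 containing 1% DMSO, DMSO solvent-corrected. Surface: cyno CD22, sialic acids first stripped by SialoExo for 4 h at 37° C., then amine-coupled onto CM5.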

cynomolgus Siglec-2/CD22, sequence (A0A2K5WCZ6 entry or part of it): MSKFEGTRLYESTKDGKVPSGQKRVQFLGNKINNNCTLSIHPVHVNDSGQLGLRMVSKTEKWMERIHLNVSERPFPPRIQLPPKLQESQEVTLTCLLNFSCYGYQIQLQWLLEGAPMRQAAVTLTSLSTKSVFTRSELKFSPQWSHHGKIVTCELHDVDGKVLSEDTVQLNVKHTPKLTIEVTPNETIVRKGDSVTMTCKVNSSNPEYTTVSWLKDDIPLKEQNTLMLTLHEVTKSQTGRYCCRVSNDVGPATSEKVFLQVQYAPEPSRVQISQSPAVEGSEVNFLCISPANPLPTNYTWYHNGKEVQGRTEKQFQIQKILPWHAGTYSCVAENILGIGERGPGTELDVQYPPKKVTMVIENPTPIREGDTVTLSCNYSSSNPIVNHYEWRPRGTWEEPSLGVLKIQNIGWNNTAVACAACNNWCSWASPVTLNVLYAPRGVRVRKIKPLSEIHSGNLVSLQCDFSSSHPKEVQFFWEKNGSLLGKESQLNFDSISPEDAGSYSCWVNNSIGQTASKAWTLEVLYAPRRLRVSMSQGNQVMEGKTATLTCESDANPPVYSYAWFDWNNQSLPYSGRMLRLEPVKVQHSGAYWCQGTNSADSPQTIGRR

Row | Compound | Kd [1] [µM] | Kd [2] [µM] | Kd (cynomolgus Siglec-2/CD22) [µM]
1 | C#CCCOc1ccc(CO[C@]2(C(=O)O)C[C@H](O)[C@@H](NC(=O)CO)[C@H]([C@H](O)[C@H](O)CNC(=O)Cc3cccc(-c4ccccc4O)c3)O2)cc1 [Compound 46, (2R,4S,5R,6R)-2-((4-(but-3-yn-1-yloxy)benzyl)oxy)-6-((1R,2R)-1,2-dihydroxy-3-(2-(2′-hydroxy-[1,1′-biphenyl]-3-yl)acetamido)propyl)-4-hydroxy-5-(2-hydroxyacetamido)tetrahydro-2H-pyran-2-carboxylic acid] | 1 to 10 | < 1 | 1 to 10
2 | C#CCOc1ccc(CO[C@]2(C(=O)O)C[C@H](O)[C@@H](NC(=O)CO)[C@H]([C@H](O)[C@H](O)CNC(=O)Cc3ccc(-c4ccc(O)cc4)c(Cl)c3)O2)cc1 [Compound 47, (2R,4S,5R,6R)-6-((1R,2R)-3-(2-(2-chloro-4′-hydroxy-[1,1′-biphenyl]-4-yl)acetamido)-1,2-dihydroxypropyl)-4-hydroxy-5-(2-hydroxyacetamido)-2-((4-(prop-2-yn-1-yloxy)benzyl)oxy)tetrahydro-2H-pyran-2-carboxylic acid] | < 1 | < 1 | < 1
3 | C#CCOc1ccc(CO[C@]2(C(=O)O)C[C@H](O)[C@@H](NC(=O)CO)[C@H]([C@H](O)[C@H](O)CNC(=O)Cc3ccc(-c4ccc(F)cc4)cc3)O2)cc1 [Compound 48, (2R,4S,5R,6R)-6-((1R,2R)-3-(2-(4′-fluoro-[1,1′-biphenyl]-4-yl)acetamido)-1,2-dihydroxypropyl)-4-hydroxy-5-(2-hydroxyacetamido)-2-((4-(prop-2-yn-1-yloxy)benzyl)oxy)tetrahydro-2H-pyran-2-carboxylic acid] | 1 to 10 | < 1 | 1 to 10
4 | C#CCCCCCCS[C@]1(C(=O)O)C[C@H](O)[C@@H](NC(=O)CO)[C@H]([C@H](O)[C@H](O)CNC(=O)Cc2ccc(-c3ccc(O)cc3)cc2)O1 [Compound 49, (2S,4S,5R,6R)-6-((1R,2R)-1,2-dihydroxy-3-(2-(4′-hydroxy-[1,1′-biphenyl]-4-yl)acetamido)propyl)-4-hydroxy-5-(2-hydroxyacetamido)-2-(oct-7-yn-1-ylthio)tetrahydro-2H-pyran-2-carboxylic acid] | < 1 | < 1 | < 1
5 | C#CCCOc1ccc(CO[C@]2(C(=O)O)C[C@H](O)[C@@H](NC(=O)CO)[C@H]([C@H](O)[C@H](O)CNC(=O)Cc3ccc(-c4ccc(NC(C)=O)cc4)cc3)O2)cc1 [Compound 50, (2R,4S,5R,6R)-6-((1R,2R)-3-(2-(4′-acetamido-[1,1′-biphenyl]-4-yl)acetamido)-1,2-dihydroxypropyl)-2-((4-(but-3-yn-1-yloxy)benzyl)oxy)-4-hydroxy-5-(2-hydroxyacetamido)tetrahydro-2H-pyran-2-carboxylic acid] | < 1 | < 1 | 1 to 10
6 | C#CCOc1ccc(CO[C@]2(C(=O)O)C[C@H](O)[C@@H](NC(=O)CO)[C@H]([C@H](O)[C@H](O)CNC(=O)Cc3ccc(-c4ccc(O)cc4)cc3OC)O2)cc1 [Compound 51, (2R,4S,5R,6R)-6-((1R,2R)-1,2-dihydroxy-3-(2-(4′-hydroxy-3-methoxy-[1,1′-biphenyl]-4-yl)acetamido)propyl)-4-hydroxy-5-(2-hydroxyacetamido)-2-((4-(prop-2-yn-1-yloxy)benzyl)oxy)tetrahydro-2H-pyran-2-carboxylic acid] | < 1 | < 1 | 1 to 10
7 | C#CCOc1ccc(CO[C@]2(C(=O)O)C[C@H](O)[C@@H](NC(=O)CO)[C@H]([C@H](O)[C@H](O)CNC(=O)Cc3ccc(-c4ccc(O)cc4)cc3Cl)O2)cc1 [Compound 52, (2R,4S,5R,6R)-6-((1R,2R)-3-(2-(3-chloro-4′-hydroxy-[1,1′-biphenyl]-4-yl)acetamido)-1,2-dihydroxypropyl)-4-hydroxy-5-(2-hydroxyacetamido)-2-((4-(prop-2-yn-1-yloxy)benzyl)oxy)tetrahydro-2H-pyran-2-carboxylic acid] | < 1 | < 1 | 1 to 10
8 | C#CCOc1ccc(-c2cn([C@]3(C(=O)O)C[C@H](O)[C@@H](NC(=O)CO)[C@H]([C@H](O)[C@H](O)CNC(=O)Cc4ccc(-c5ccc(O)cc5)cc4)O3)nn2)cc1 [Compound 53, (2R,4S,5R,6R)-6-((1R,2R)-1,2-dihydroxy-3-(2-(4′-hydroxy-[1,1′-biphenyl]-4-yl)acetamido)propyl)-4-hydroxy-5-(2-hydroxyacetamido)-2-(4-(4-(prop-2-yn-1-yloxy)phenyl)-1H-1,2,3-triazol-1-yl)tetrahydro-2H-pyran-2-carboxylic acid] | 1 to 10 | < 1 | 1 to 10
9 | O=C(Cc1ccc(-c2ccc(O)cc2)cc1)NC[C@@H](O)[C@@H](O)[C@@H]1O[C@](C(=O)O)(n2cc(-c3ccccc3O)nn2)C[C@H](O)[C@H]1NC(=O)CO [Compound 54, (2R,4S,5R,6R)-6-((1R,2R)-1,2-dihydroxy-3-(2-(4′-hydroxy-[1,1′-biphenyl]-4-yl)acetamido)propyl)-4-hydroxy-5-(2-hydroxyacetamido)-2-(4-(2-hydroxyphenyl)-1H-1,2,3-triazol-1-yl)tetrahydro-2H-pyran-2-carboxylic acid] | > 10 | < 1 | 1 to 10
10 | C#CCCOc1ccc(CO[C@]2(C(=O)O)C[C@H](O)[C@@H](N)[C@H]([C@H](O)[C@H](O)CNC(=O)Cc3ccc(-c4ccc(O)cc4)cc3)O2)cc1 [Compound 55, (2R,4S,5R,6R)-5-amino-2-((4-(but-3-yn-1-yloxy)benzyl)oxy)-6-((1R,2R)-1,2-dihydroxy-3-(2-(4′-hydroxy-[1,1′-biphenyl]-4-yl)acetamido)propyl)-4-hydroxytetrahydro-2H-pyran-2-carboxylic acid] | < 1 | 1 to 10 | 1 to 10
11 | C#CCOc1ccc(CO[C@]2(C(=O)O)C[C@H](O)[C@@H](NC(=O)CO)[C@H]([C@H](O)[C@H](O)CNC(=O)Cc3ccc(-c4ccc(O)cc4)cc3C)O2)cc1 [Compound 56, (2R,4S,5R,6R)-6-((1R,2R)-1,2-dihydroxy-3-(2-(4′-hydroxy-3-methyl-[1,1′-biphenyl]-4-yl)acetamido)propyl)-4-hydroxy-5-(2-hydroxyacetamido)-2-((4-(prop-2-yn-1-yloxy)benzyl)oxy)tetrahydro-2H-pyran-2-carboxylic acid] | < 1 | < 1 | 1 to 10
12 | C#CCOCCOCCO[C@]1(C(=O)O)C[C@H](O)[C@@H](NC(=O)CNC(C)=O)[C@H]([C@H](O)[C@H](O)CNC(=O)Cc2ccc(-c3ccc(O)cc3)cc2)O1 [Compound 57, (2R,4S,5R,6R)-5-(2-acetamidoacetamido)-6-((1R,2R)-1,2-dihydroxy-3-(2-(4′-hydroxy-[1,1′-biphenyl]-4-yl)acetamido)propyl)-4-hydroxy-2-(2-(2-(prop-2-yn-1-yloxy)ethoxy)ethoxy)tetrahydro-2H-pyran-2-carboxylic acid] | > 10 | 1 to 10 | 1 to 10

From US20250064941A1, “SIGLEC LIGANDS, CONJUGATES, AND METHODS OF USE THEREOF” (Osprey Biopharmaceuticals, Inc., priority 2023, published 2025)
